According to ChEMBL document CHEMBL1201862, “PubChem BioAssay data set” (2004):
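These data come from cells grown in 96-well plates and exposed to compound for 48 hours at five concentrations. GI50 = concentration required for 50% inhibition of growth.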 The source made the active and inactive calls. No stated cut-off is given here; in the data, active = GI50 up to about 1.1 µM and inactive = higher.

Columns and labels:
Experiment in all cases: DTP human tumour cell line panel, 48 h
SNB-78 = tested on: SNB-78
HL-60 = tested on: HL-60
IGROV-1 = tested on: IGROV-1
786-0 = tested on: 786-0
HOP-92 = tested on: HOP-92
DLD-1 = tested on: DLD-1
Malme-3M = tested on: Malme-3M
M14 = tested on: M14
DMS-114 = tested on: DMS-114
NCI-H23 = tested on: NCI-H23
COLO 205 = tested on: COLO 205
KM-20L2 = tested on: KM-20L2
MDA-N = tested on: MDA-N
T47D = tested on: T47D
MDA-MB-231 = tested on: MDA-MB-231
NCI/ADR-RES = tested on: NCI/ADR-RES
MCF7 = tested on: MCF7
PC-3 = tested on: PC-3
MDA-MB-435 = tested on: MDA-MB-435
BT-549 = tested on: BT-549

Structure (SMILES)	GI50 (SNB-78)	GI50 (HL-60)	GI50 (IGROV-1)	GI50 (786-0)	GI50 (HOP-92)	GI50 (DLD-1)	GI50 (Malme-3M)	GI50 (M14)	GI50 (DMS-114)	GI50 (NCI-H23)	GI50 (COLO 205)	GI50 (KM-20L2)	GI50 (MDA-N)	GI50 (T47D)	GI50 (MDA-MB-231)	GI50 (NCI/ADR-RES)	GI50 (MCF7)	GI50 (PC-3)	GI50 (MDA-MB-435)	GI50 (BT-549)
CN(C)C(=S)/N=c1\ss/c(=N\S(=O)(=O)c2ccccc2)n1-c1ccccc1	29 µM (inactive)	4.33 µM (inactive)	38 µM (inactive)	30.4 µM (inactive)	14.7 µM (inactive)	13.5 µM (inactive)	30.1 µM (inactive)	20.6 µM (inactive)	2.08 µM (inactive)	16.1 µM (inactive)	–	–	–	–	–	–	–	–	–	–
Clc1ccc(CCc2ccncn2)c(Cl)c1	61.5 µM (inactive)	30.1 µM (inactive)	> 100 µM (inactive)	> 100 µM (inactive)	54.6 µM (inactive)	> 100 µM (inactive)	58.9 µM (inactive)	> 100 µM (inactive)	30.1 µM (inactive)	49.3 µM (inactive)	64.9 µM (inactive)	73.5 µM (inactive)	–	–	–	–	–	–	–	–
C/C=C1\NC(=O)[C@H]2CSSCCC=C[C@H](CC(=O)N[C@H](C(C)C)C(=O)N2)OC(=O)[C@H](C(C)C)NC1=O	0.0446 µM (active)	–	–	–	0.000366 µM (active)	0.0217 µM (active)	–	0.000299 µM (active)	0.00291 µM (active)	0.000125 µM (active)	–	0.00288 µM (active)	2.17e-05 µM (active)	4.39e-05 µM (active)	2.43e-05 µM (active)	0.0619 µM (active)	2.22e-05 µM (active)	4.88e-05 µM (active)	1e-05 µM (active)	–
CC12CC3(C)CC(C)(C1)CC(N=[N+]=[N-])(C2)C3	> 100 µM (inactive)	–	> 100 µM (inactive)	> 100 µM (inactive)	> 100 µM (inactive)	> 100 µM (inactive)	> 100 µM (inactive)	> 100 µM (inactive)	> 100 µM (inactive)	> 100 µM (inactive)	> 100 µM (inactive)	–	–	–	–	–	–	–	–	–
O=C(Nc1nc2ncn(CCNCc3ccccc3)c2c(=O)[nH]1)c1ccccc1	> 100 µM (inactive)	> 100 µM (inactive)	> 100 µM (inactive)	> 100 µM (inactive)	> 100 µM (inactive)	> 100 µM (inactive)	> 100 µM (inactive)	> 100 µM (inactive)	> 100 µM (inactive)	–	> 100 µM (inactive)	> 100 µM (inactive)	–	–	–	–	–	–	–	–
O=C1CSc2sc(=S)sc2S1	> 63.7 µM (inactive)	> 61.5 µM (inactive)	> 100 µM (inactive)	–	> 100 µM (inactive)	> 100 µM (inactive)	> 100 µM (inactive)	–	> 100 µM (inactive)	> 100 µM (inactive)	> 100 µM (inactive)	> 100 µM (inactive)	–	–	–	> 66.8 µM (inactive)	> 100 µM (inactive)	–	–	–
COc1ccc(CC/N=C2\CCC(C(=O)NCCc3ccc(OC)c(OC)c3)N2)cc1OC (stereo not drawn)	> 100 µM (inactive)	> 100 µM (inactive)	> 100 µM (inactive)	> 100 µM (inactive)	> 100 µM (inactive)	> 100 µM (inactive)	> 100 µM (inactive)	> 100 µM (inactive)	> 100 µM (inactive)	> 100 µM (inactive)	> 100 µM (inactive)	> 100 µM (inactive)	–	–	–	–	–	–	–	–
COc1ccc(C2=C(Cl)c3cc(OC)c(OC)cc3C2Cl)cc1 (stereo not drawn)	17.9 µM (inactive)	3.03 µM (inactive)	17.4 µM (inactive)	12.2 µM (inactive)	12.2 µM (inactive)	–	19.1 µM (inactive)	17.2 µM (inactive)	14.1 µM (inactive)	> 37.4 µM (inactive)	17.5 µM (inactive)	15.9 µM (inactive)	10.1 µM (inactive)	13.3 µM (inactive)	17.7 µM (inactive)	12.7 µM (inactive)	10.5 µM (inactive)	12.8 µM (inactive)	12.3 µM (inactive)	3.78 µM (inactive)
O=C1C(c2ccc(C3=[N+]([O-])c4cc([N+](=O)[O-])ccc4C3=O)cc2)=[N+]([O-])c2cc([N+](=O)[O-])ccc21	8.91 µM (inactive)	> 10 µM (inactive)	> 10 µM (inactive)	58.9 µM (inactive)	> 10 µM (inactive)	> 10 µM (inactive)	> 10 µM (inactive)	> 10 µM (inactive)	> 10 µM (inactive)	> 10 µM (inactive)	> 10 µM (inactive)	> 10 µM (inactive)	–	–	–	–	–	–	–	–
CC(=O)OCC1OC(n2cc(F)c(=O)[nH]c2=O)C(N)C(OC(C)=O)C1OC(C)=O (stereo not drawn)	> 100 µM (inactive)	> 100 µM (inactive)	> 100 µM (inactive)	–	> 100 µM (inactive)	> 100 µM (inactive)	> 100 µM (inactive)	–	> 100 µM (inactive)	> 100 µM (inactive)	> 100 µM (inactive)	> 100 µM (inactive)	–	–	–	> 100 µM (inactive)	> 100 µM (inactive)	–	–	–
S=c1sc2cscc2s1	30.5 µM (inactive)	28.1 µM (inactive)	32.2 µM (inactive)	19.8 µM (inactive)	24.8 µM (inactive)	21 µM (inactive)	12.6 µM (inactive)	19.1 µM (inactive)	22.8 µM (inactive)	28.8 µM (inactive)	17.7 µM (inactive)	27 µM (inactive)	–	–	–	–	–	–	–	–
COc1ccc(C2C(N)=NCC2c2ccccn2)cc1 (stereo not drawn)	> 100 µM (inactive)	–	> 100 µM (inactive)	> 100 µM (inactive)	> 100 µM (inactive)	> 100 µM (inactive)	> 100 µM (inactive)	> 100 µM (inactive)	> 100 µM (inactive)	> 100 µM (inactive)	> 100 µM (inactive)	> 100 µM (inactive)	–	–	–	–	–	–	–	–
CC(=O)OCC1=C(COC(C)=O)C(=O)c2c(O)ccc(O)c2C1=O	3.78 µM (inactive)	1.49 µM (inactive)	16 µM (inactive)	–	2.54 µM (inactive)	1.43 µM (inactive)	4.28 µM (inactive)	5.3 µM (inactive)	11.2 µM (inactive)	12.1 µM (inactive)	2.38 µM (inactive)	13.4 µM (inactive)	–	–	–	–	–	–	–	–
